The supplement of paper PMC13380429

What was measured:
Conditions in all cases: 72 h
Calu-3 [1] = assay: relative viability EC50 (midpoint between 100% and the lowest measured viability); higher = less toxic
Vero E6 [2] = assay: as above
HepG2 [3] = assay: as above
U2OS [4] = assay: as above
Calu-3 [5] = assay: cell viability relative to DMSO; higher = less toxic
Vero E6 [6] = assay: as above
HepG2 [7] = assay: as above
Caco-2 [8] = assay: as above
U2OS [9] = assay: as above
Calu-3 [10] = assay: drug sensitivity score (DSS) for viability; higher = more toxic; extreme values may be limits of the assay
Vero E6 [11] = assay: as above
HepG2 [12] = assay: as above
Caco-2 [13] = assay: as above
U2OS [14] = assay: as above

| SMILES | relative viability EC50 (Calu-3 [1]) [µM] | relative viability EC50 (Vero E6 [2]) [µM] | relative viability EC50 (HepG2 [3]) [µM] | relative viability EC50 (U2OS [4]) [µM] | cell viability (Calu-3 [5]; 1 nM) [%] | cell viability (Calu-3 [5]; 10 nM) [%] | cell viability (Calu-3 [5]; 100 nM) [%] | cell viability (Calu-3 [5]; 1000 nM) [%] | cell viability (Calu-3 [5]; 10000 nM) [%] | cell viability (Vero E6 [6]; 1 nM) [%] | cell viability (Vero E6 [6]; 10 nM) [%] | cell viability (Vero E6 [6]; 100 nM) [%] | cell viability (Vero E6 [6]; 1000 nM) [%] | cell viability (Vero E6 [6]; 10000 nM) [%] | cell viability (HepG2 [7]; 1 nM) [%] | cell viability (HepG2 [7]; 10 nM) [%] | cell viability (HepG2 [7]; 100 nM) [%] | cell viability (HepG2 [7]; 1000 nM) [%] | cell viability (HepG2 [7]; 10000 nM) [%] | cell viability (Caco-2 [8]; 1 nM) [%] | cell viability (Caco-2 [8]; 10 nM) [%] | cell viability (Caco-2 [8]; 100 nM) [%] | cell viability (Caco-2 [8]; 1000 nM) [%] | cell viability (Caco-2 [8]; 10000 nM) [%] | cell viability (U2OS [9]; 1 nM) [%] | cell viability (U2OS [9]; 10 nM) [%] | cell viability (U2OS [9]; 100 nM) [%] | cell viability (U2OS [9]; 1000 nM) [%] | cell viability (U2OS [9]; 10000 nM) [%] | drug sensitivity score (Calu-3 [10]) | drug sensitivity score (Vero E6 [11]) | drug sensitivity score (HepG2 [12]) | drug sensitivity score (Caco-2 [13]) | drug sensitivity score (U2OS [14]) |
| --- | --- | --- | --- | --- | --- | --- | --- | --- | --- | --- | --- | --- | --- | --- | --- | --- | --- | --- | --- | --- | --- | --- | --- | --- | --- | --- | --- | --- | --- | --- | --- | --- | --- | --- |
| CCNCCS(=O)(=O)NC[C@@]1(c2ccccc2)SC(NC(=O)C(C)(C)C)=NN1C(=O)C(C)(C)C [litronesib] | > 10 | 0.146 | 0.0119 | 0.0488 | 95.1 | 91.9 | 87 | 84.3 | 81.2 | 97 | 107 | 82.9 | 38.8 | 41.9 | 89.4 | 72.9 | 35.9 | 34.7 | 33.6 | 98.1 | 91 | 62.9 | 67.9 | 62.2 | 104 | 96 | 58 | 49.7 | 44.8 | 2.8 | 13.9 | 23.3 | 12.7 | 15.5 |
| CC(=O)NC[C@H]1CN(c2ccc(N3CCOCC3)c(F)c2)C(=O)O1 [linezolid] | – | – | – | – | – | – | – | – | – | – | – | – | – | – | – | – | – | – | – | – | – | – | – | – | – | – | – | – | – | – | 0 | 0 | – | 0 |
| CNC(=O)[C@H]1O[C@@H](n2cnc3c(NCc4cccc(I)c4)nc(Cl)nc32)[C@H](O)[C@@H]1O [CF102] | > 10 | > 10 | > 10 | – | 99.1 | 116 | 93.2 | 102 | 98.3 | 110 | 99.5 | 104 | 98.3 | 102 | 100 | 102 | 108 | 106 | 99.3 | – | – | – | – | – | – | – | – | – | – | 0 | 0 | 0 | – | – |
| CCCCN(CCCC)CCCOC(=O)c1ccc(N)cc1 [butacaine] | > 10 | > 10 | > 10 | > 10 | 95.9 | 95.3 | 106 | 86.8 | 94.9 | 102 | 90.8 | 99.1 | 92.9 | 92.7 | 108 | 93 | 102 | 85.2 | 95.7 | 92.7 | 98.5 | 91.3 | 128 | 65.7 | 92.5 | 99.3 | 95.1 | 102 | 101 | 0 | 0 | 0 | 0.9 | 0 |
| COc1ccc(C(=O)CC2(O)C(=O)Nc3c(Cl)ccc(Cl)c32)cc1 (centres undefined) [YK-4-279] | > 10 | 3.34 | 2.47 | 2.5 | 103 | 93.2 | 101 | 106 | 76.4 | 108 | 102 | 102 | 102 | 48.1 | 106 | 108 | 99.1 | 94.5 | 34.9 | 105 | 93.1 | 103 | 93.3 | 63.8 | 104 | 97.8 | 106 | 95.6 | 45.7 | 0.6 | 2.6 | 4.4 | 2.8 | 3.6 |
| COc1ccc(CNC(=O)c2cc(-c3cncc(C)c3)ncc2-c2nccs2)nc1OC [MK-3697] | > 10 | > 10 | > 10 | > 10 | 89 | 101 | 83.4 | 92.5 | 99.9 | 103 | 104 | 109 | 111 | 92.7 | 99.8 | 91.2 | 94.9 | 98.5 | 105 | – | – | – | – | – | 97.4 | 103 | 94.7 | 99.3 | 99.1 | 0 | 0 | 0 | – | 0 |
| COc1cccc(Nc2c(C(N)=O)cnc3c(C)cc(S(=O)(=O)c4cccc(C(=O)N(C)C)c4)cc23)c1 | – | – | – | – | – | – | – | – | – | – | – | – | – | – | – | – | – | – | – | – | – | – | – | – | – | – | – | – | – | – | 0 | 0 | – | 0 |
| CO[C@@]12[C@H](COC(N)=O)C3=C(C(=O)C(C)=C(N)C3=O)N1C[C@@H]1N[C@@H]12 [mitomycin-C] | – | – | – | – | – | – | – | – | – | – | – | – | – | – | – | – | – | – | – | – | – | – | – | – | – | – | – | – | – | 2.6 | 5.5 | 16.7 | – | 2.6 |
| CC(C)(C)Nc1nc(Nc2ccc(C(N)=O)cc2)cc(N)c1C#N [TC-Mps1-12] | > 10 | – | 0.555 | – | 97.5 | 103 | 104 | 109 | 100 | 104 | 102 | 101 | 98.2 | 61.7 | 91.7 | 89.8 | 88.4 | 66.2 | 39.5 | 94.9 | 101 | 102 | 95.9 | 72.1 | 93.6 | 96.6 | 94.8 | 95 | 62.9 | 0 | 2.1 | 8 | 1.8 | 2.6 |
| O=C(O)c1cc(-c2ccccc2)nc2ccccc12 [cinchophen] | – | – | – | – | – | – | – | – | – | – | – | – | – | – | – | – | – | – | – | – | – | – | – | – | – | – | – | – | – | 0 | 0 | 0.2 | – | 0 |
| Cc1sc2c(c1C)C(c1ccc(Cl)cc1)=N[C@@H](CC(=O)OC(C)(C)C)c1nnc(C)n1-2 [JQ1-(+)] | – | – | – | – | – | – | – | – | – | – | – | – | – | – | – | – | – | – | – | – | – | – | – | – | – | – | – | – | – | 6 | 17.3 | 10 | – | 9.2 |
| CCN(CC)CC#CCOC(=O)C(O)(c1ccccc1)C1CCCCC1 (centres undefined) [oxybutynin] | – | – | – | – | – | – | – | – | – | – | – | – | – | – | – | – | – | – | – | – | – | – | – | – | – | – | – | – | – | 0 | 0 | 0 | – | 0 |
| COc1ccc(OC)c([C@@H](O)CNC(=O)CN)c1 [midodrine] | > 10 | > 10 | > 10 | > 10 | 89.1 | 98.7 | 95.7 | 95.6 | 98.3 | 102 | 97.8 | 106 | 95.8 | 108 | 109 | 102 | 118 | 99.1 | 109 | – | – | – | – | – | 99.1 | 104 | 100 | 106 | 105 | 0 | 0 | 0 | – | 0 |
| Cc1csc2c(N[C@@H](C)CN3CCN(S(=O)(=O)c4ccc(Cl)c(Cl)c4)CC3)ncnc12 [LPA2-antagonist-1] | > 10 | > 10 | 0.451 | – | 90.5 | 104 | 96.9 | 103 | 93.6 | 95.2 | 97.1 | 102 | 93.2 | 82.5 | 106 | 97.9 | 93.2 | 36.6 | 18.6 | 96.3 | 107 | 95.3 | 80.9 | 64.4 | 97.6 | 101 | 97.4 | 97 | 58.7 | 0 | 1.1 | 12.8 | 3.7 | 2.5 |
| CC(C)(O)c1ccccc1CC[C@@H](SCC1(CC(=O)O)CC1)c1cccc(/C=C/c2ccc3ccc(Cl)cc3n2)c1 [montelukast] | – | – | – | – | – | – | – | – | – | – | – | – | – | – | – | – | – | – | – | – | – | – | – | – | – | – | – | – | – | 0 | 0 | 0 | – | 0 |
| Cc1cc(-c2nc3cc(F)ccc3s2)ccc1NC(=O)[C@@H](N)CCCCN [phortress] | > 10 | > 10 | 0.208 | > 10 | 102 | 99.9 | 97.6 | 91.3 | 79.9 | 92.3 | 95.8 | 94.4 | 97.2 | 107 | 95.6 | 107 | 86.3 | 3.3 | 1.6 | 100 | 100 | 93.3 | 92.2 | 73.5 | 97.9 | 93.9 | 97.5 | 95.2 | 93.6 | 1.1 | 0 | 20 | 1.6 | 0 |
| COc1cc(/C=C2\CCCN([C@@H](C)c3ccc(F)cc3)C2=O)ccc1-n1cnc(C)c1 [E-2012] | > 10 | > 10 | – | > 10 | 102 | 99.2 | 106 | 104 | 114 | 93.1 | 104 | 98.7 | 98.8 | 106 | 109 | 97.5 | 100 | 99 | 60.1 | 106 | 101 | 94.9 | 98.8 | 72.6 | 103 | 97.7 | 101 | 104 | 97.4 | 0 | 0 | 2.1 | 1.3 | 0 |
| O=C1[C@H](Cc2ccc(O)cc2)N2C(=O)CCN(C(=O)NCc3ccccc3)[C@H]2CN1Cc1cccc2ccccc12 [ICG-001] | – | > 10 | 3.6 | – | 97.4 | 106 | 97.1 | 100 | 53.1 | 90 | 99.2 | 91.3 | 97.2 | 106 | 102 | 105 | 110 | 105 | 43.5 | 91.5 | 94.2 | 99.7 | 91 | 68.8 | – | – | – | – | – | 2.4 | 0 | 2.7 | 2.7 | – |
| CN1CCN(C(c2ccccc2)c2ccc(Cl)cc2)CC1 (centres undefined) [chlorcyclizine] | > 10 | > 10 | > 10 | > 10 | 102 | 103 | 96.4 | 98.3 | 88.1 | 105 | 97.3 | 103 | 101 | 92.6 | 97.6 | 90.4 | 95.8 | 91.7 | 87.9 | 107 | 104 | 79.4 | 105 | 71.7 | 93.8 | 103 | 99 | 106 | 88.8 | 0.1 | 0 | 0 | 0.9 | 0 |
| CCCCN(Cc1ccc(C(=O)NO)cc1)C(=O)Nc1ccccc1 [nexturastat-A] | – | – | 1.83 | 1.95 | 89.3 | 107 | 98.9 | 88 | 51.7 | 96.2 | 94.5 | 96.7 | 99.4 | 56.6 | 110 | 105 | 97.7 | 90 | 43.9 | 101 | 98.8 | 109 | 92.3 | 52.3 | 98.1 | 102 | 99.3 | 90.1 | 36.6 | 4.4 | 2.3 | 4.7 | 3.8 | 5.1 |
